Laboratory results from patent US20250034125A1, “COMPOUNDS AND USES THEREOF” (JANSSEN PHARMACEUTICA NV, priority 2019, published 2025).
Read-outs that look alike come from different tables or passages of the source.

Assays:
SCD5 = biological target: T1, SCD5 (Homo sapiens, UniProt Q86SK9); experiment: Growth inhibition of yeast (ole1Δ) expressing human SCD5 as the sole desaturase; type: cell-based
T1 construct: host or cells: Saccharomyces cerevisiae ole1Δ strain (W303 pdr1Δ pdr3Δ background), plasmid pRS316, TDH3 promoter
T1 sequence (Q86SK9 1-330): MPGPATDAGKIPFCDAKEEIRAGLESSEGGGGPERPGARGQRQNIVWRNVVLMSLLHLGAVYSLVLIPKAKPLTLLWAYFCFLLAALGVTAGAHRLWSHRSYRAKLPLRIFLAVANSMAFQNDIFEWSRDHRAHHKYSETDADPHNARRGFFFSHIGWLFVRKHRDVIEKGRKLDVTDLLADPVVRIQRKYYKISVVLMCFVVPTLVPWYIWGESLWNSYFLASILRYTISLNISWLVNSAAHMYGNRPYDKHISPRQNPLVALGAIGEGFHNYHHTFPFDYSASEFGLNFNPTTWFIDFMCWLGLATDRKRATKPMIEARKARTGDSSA

SCD1 = biological target: T2, SCD1 (Homo sapiens, UniProt O00767); experiment: Growth inhibition of yeast (ole1Δ) expressing human SCD1 as the sole desaturase; type: cell-based
T2 construct: host or cells: Saccharomyces cerevisiae ole1Δ strain (W303 pdr1Δ pdr3Δ background), plasmid pRS316, TDH3 promoter
T2 sequence (O00767 1-359): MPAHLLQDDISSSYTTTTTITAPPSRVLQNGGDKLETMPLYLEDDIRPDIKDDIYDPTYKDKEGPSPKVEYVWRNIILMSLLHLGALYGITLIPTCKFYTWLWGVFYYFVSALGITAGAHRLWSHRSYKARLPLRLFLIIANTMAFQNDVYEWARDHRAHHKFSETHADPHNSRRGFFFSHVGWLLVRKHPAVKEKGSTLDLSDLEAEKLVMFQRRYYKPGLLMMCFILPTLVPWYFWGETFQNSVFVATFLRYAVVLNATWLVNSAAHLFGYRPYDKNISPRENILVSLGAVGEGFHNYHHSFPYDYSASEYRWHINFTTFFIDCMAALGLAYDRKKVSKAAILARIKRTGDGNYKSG

[1] = yeast strain with SCD5 plasmid, OD600 growth read at 40 h, read-out: SCD5 IC50
[2] = yeast strain with SCD1 plasmid, OD600 growth read at 40 h, read-out: SCD1 IC50

| SMILES | IC50 (SCD5; [1]) [nM] | IC50 (SCD1; [2]) [nM] | IC50 (SCD5) [nM] | IC50 (SCD1) [nM] |
| --- | --- | --- | --- | --- |
| Cc1cc(NC(=O)N2CCC(Oc3cc(F)cc(F)c3)CC2)nn(C)c1=O [Compound 126] | 40 | 40 |  |  |
| Cn1nc(-c2cnc(N3CCC(Cc4cc(F)cc(F)c4)CC3)o2)ccc1=O [Compound 124, 6-(2-(4-(3,5-difluorobenzyl)piperidin-1-yl)oxazol-5-yl)-2-methylpyridazin-3(2H)-one] | 140 | 26000 |  |  |
| O=c1ccc(-c2noc(N3CCC(Cc4ccc(F)c(F)c4)CC3)n2)c[nH]1 [Compound 1] | 3800 | 14000 |  |  |
| Cn1nc(NC(=O)N2CCC(Cc3cc(F)cc(F)c3)C2)ccc1=O (stereo not drawn) [Compound 26, 3-(3,5-difluorobenzyl)-N-(1-methyl-6-oxo-1,6-dihydropyridazin-3-yl)pyrrolidine-1-carboxamide] | 5680 | 4150 |  |  |
| Cn1nc(NC(=O)N2CCC(Nc3cc(F)cc(F)c3)CC2)ccc1=O [Compound 94, 4-((3,5-difluorophenyl)amino)-N-(1-methyl-6-oxo-1,6-dihydropyridazin-3-yl)piperidine-1-carboxamide] |  |  | > 45000 | > 45000 |
| Cn1nc(NC(=O)N2CCC(Oc3cc(F)ccc3Cl)CC2)ccc1=O [Compound 82, 4-(2-chloro-5-fluorophenoxy)-N-(1-methyl-6-oxo-1,6-dihydropyridazin-3-yl)piperidine-1-carboxamide] | 20 | 50 |  |  |
| Cn1nc(NC(=O)N2CCC(COc3ccccc3Cl)CC2)ccc1=O [Compound 98, 4-((2-chlorophenoxy)methyl)-N-(1-methyl-6-oxo-1,6-dihydropyridazin-3-yl)piperidine-1-carboxamide] | 1350 | 5180 |  |  |
| Cn1nc(NC(=O)N2CCC(Cc3ccc(F)c(Cl)c3)CC2)ccc1=O [Compound 54, 4-(3-chloro-4-fluorobenzyl)-N-(1-methyl-6-oxo-1,6-dihydropyridazin-3-yl)piperidine-1-carboxamide] | 40 | 440 |  |  |
| Cn1nc(NC(=O)N2CCC(Oc3ccc(F)cc3C(F)(F)F)CC2)ccc1=O [Compound 85] | 50 | 80 |  |  |
| Cn1nc(CC(=O)N2CCC(Oc3cccc(Cl)c3)CC2)ccc1=O [Compound 39] | 1380 | 1350 |  |  |
| Cn1nc(NC(=O)N2CCC(F)(Cc3ccc(F)c(F)c3)CC2)ccc1=O [Compound 60, 4-(3,4-difluorobenzyl)-4-fluoro —N-(1-methyl-6-oxo-1,6-dihydropyridazin-3-yl)piperidine-1-carboxamide] | 1100 | 3900 |  |  |
| Cn1nc(NC(=O)N2CCC(Nc3ccccc3C(F)(F)F)CC2)ccc1=O [Compound 92, N-(1-methyl-6-oxo-1,6-dihydropyridazin-3-yl)-4-(2-(trifluoromethyl)phenylamino) piperidine-1-carboxamide] | 390 | 2400 |  |  |
| Cn1nc(NC(=O)N2CCC(Cc3cc(F)c(F)cc3Cl)CC2)ccc1=O [Compound 61, 4-(2-chloro-4,5-difluorobenzyl)-N-(1-methyl-6-oxo-1,6-dihydropyridazin-3-yl)piperidine-1-carboxamide] | 40 | 80 |  |  |
| Cn1nc(-c2nc(N3CCC(Cc4ccccc4)CC3)no2)ccc1=O [Compound 113, 6-(3-(4-benzylpiperidin-1-yl)-1,2,4-oxadiazol-5-yl)-2-methylpyridazin-3(2H)-one] | 380 | > 45000 |  |  |
| Cn1cc(-c2nc(N3CCC(Oc4cccc(F)c4Cl)CC3)no2)ccc1=O [Compound 16, 5-(3-(4-(2-chloro-3-fluorophenoxy)piperidin-1-yl)-1,2,4-oxadiazol-5-yl)-1-methylpyridin-2(1H)-one] | 590 | 350 |  |  |
| Cn1nc(NC(=O)N2CC(Cc3cccc(Cl)c3)C2)ccc1=O [Compound 22, 3-(3-chlorobenzyl)-N-(1-methyl-6-oxo-1,6-dihydropyridazin-3-yl)azetidine-1-carboxamide] | 950 | 2590 |  |  |
| Cn1nc(NC(=O)N2CCC(Cc3cc(F)c(F)c(Cl)c3)CC2)ccc1=O [Compound 63, 4-(3-chloro-4,5-difluorobenzyl)-N-(1-methyl-6-oxo-1,6-dihydropyridazin-3-yl)piperidine-1-carboxamide] | 10 | 130 |  |  |
| Cn1cc(-c2nnc(N3CCC(Cc4cc(F)cc(F)c4)CC3)o2)ccc1=O [Compound 19, 5-(5-(4-(3,5-difluorobenzyl)piperidin-1-yl)-1,3,4-oxadiazol-2-yl)-1-methylpyridin-2(1H)-one] | 1000 | 9720 |  |  |
| Cn1nc(NC(=O)N2CCC[C@@H](c3cc(F)cc(F)c3)CC2)ccc1=O [Compound 32] | 21000 | 7200 |  |  |
| Cn1nc(NC(=O)N2CCC(Oc3ccc(Cl)cc3)CC2)ccc1=O [Compound 71] | 4960 | 13300 |  |  |
| Cn1cc(-c2noc(N3CCC(Cc4cc(F)cc(F)c4)CC3)n2)ccc1=O [Compound 21, 5-(5-(4-(3,5-difluorobenzyl)piperidin-1-yl)-1,2,4-oxadiazol-3-yl)-1-methylpyridin-2(1H)-one] | 3000 | 10000 |  |  |
| Cn1nc(-c2nc(N3CCC(Oc4cccc(F)c4Cl)CC3)no2)ccc1=O [Compound 112, 6-(3-(4-(2-chloro-3-fluorophenoxy)piperidin-1-yl)-1,2,4-oxadiazol-5-yl)-2-methylpyridazin-3(2H)-one] | 600 | 500 |  |  |
| Cn1nc(NC(=O)N2CCC(Oc3cccc(Cl)c3Cl)CC2)ccc1=O [Compound 81, 4-(2,3-dichlorophenoxy)-N-(1-methyl-6-oxo-1,6-dihydropyridazin-3-yl)piperidine-1-carboxamide] | 150 | 60 |  |  |
| Cn1cc(-c2nc(N3CCC(Cc4cc(F)cc(F)c4)CC3)no2)ccc1=O [Compound 17, 5-(3-(4-(3,5-difluorobenzyl)piperidin-1-yl)-1,2,4-oxadiazol-5-yl)-1-methylpyridin-2(1H)-one] | 10 | 720 |  |  |
| Cn1nc(NC(=O)N2CCC(Cc3cc(F)c(F)c(C#N)c3)CC2)ccc1=O [Compound 65, 4-(3-cyano-4,5-difluorobenzyl)-N-(1-methyl-6-oxo-1,6-dihydropyridazin-3-yl)piperidine-1-carboxamide] | 1490 | 8150 |  |  |
| Cn1cc(-c2nnc(N3CCC(Cc4cccc(F)c4)CC3)o2)ccc1=O [Compound 18, 5-(5-(4-(3-fluorobenzyl)piperidin-1-yl)-1,3,4-oxadiazol-2-yl)-1-methylpyridin-2(1H)-one] | 1930 | > 45000 |  |  |
| Cn1nc(NC(=O)N2CC(Oc3ccc(F)c(F)c3)C2)ccc1=O [Compound 23, 3-(3,4-difluorophenoxy)-N-(1-methyl-6-oxo-1,6-dihydropyridazin-3-yl)azetidine-1-carboxamide] | 1800 | 1300 |  |  |
